Measured values reported in patent EP1972333A1, “Stabilised aqueous solutions of ergolin compounds” (Axxonis Pharma AG, priority 2007, dated 2008).
Values after ≈ are worked out from the molar mass of the structure shown. Read-outs that look alike come from different tables or passages of the source.

Tests used:
[1] = Solubility of free ergoline compounds in water / phosphate-buffered solution; format: physicochemical; conditions: for solubility: free compound, read-out: Löslichkeit; for Löslichkeit in Wasser: compared with Lisurid
Description: Für strukturverwandte Wirkstoffe, welche auf derselben Grundstruktur basieren, können ähnliche physikalischchemische Aktivitäten in vitro, in vivo sowie in klinischen Studien erwartet werden. Die Lisuridderivate Tergurid und Protergurid weisen Alkylsubstituenten am Stickstoff (N6) der Grundstruktur sowie eine Einfachbindung zwischen den Positionen 9 und 10 auf. […] Die Löslichkeit des freien Protergurid beträgt beispielsweise 2.6 mg/100 mL in einer phosphatgepufferten Lösung (pH 7.4). Die Löslichkeit des freien Lisurids kann entsprechend auf 2.2 mg/100 mL abgeschätzt werden, wobei dieser Wert aus den Löslichkeitsdaten der jeweiligen Wirkstoffe/Wirkstoffsalze kalkuliert wurde (Zimmermann I (1983) International Journal of Pharmaceutics 13: 57-65).

[2] = Stability of Lisuridhydrogenmaleat in citrate-buffered aqueous solutions (RP-HPLC, UV detection); conditions: citrate buffer; for Färbung / degraded at 4320 h: no cosolvent; for Mittlere Fläche (Lisuridpeakfläche zur totalen Peakfläche des Chromatogramms): t 0 d; for degraded at 4320 h: 180 Tage, protected from light
[3] = Solubility improvement by cosolvent; format: physicochemical; conditions: Propylenglykol as low-dosed additive (weniger als 10%)
[4] = 60°C, one week, in the dark, 10080 min
Description: Als Additive wurden Propylenglykol und Cremophor ELP in Konzentrationen zwischen 1.00 und 10.00% eingesetzt. […] Die Lösungen wurden im Dunkeln in Glasbehältern bei 60°C für eine Woche aufbewahrt.

[5] = for Mittlere Fläche (Lisuridpeakfläche zur totalen Peakfläche des Chromatogramms): 9% Propylenglykol, no buffer, 2 mg/3 mL
Description: Die Wirkstoffkonzentration wurde auf 2 mg pro 3 mL eingestellt. Es wurde kein Puffersystem hinzugegeben. Das weitere Vorgehen umfasste das Einwiegen von 33.3 mg des Wirkstoffs in einen skalierten 50 mL Kolben, anschließende Zugabe des Propylenglykols (4.5g) sowie die Beigabe von 40 mL Wasser. Der Kolben wurde für mehrere Minuten geschüttelt und anschließend Ultraschall ausgesetzt, bis der Wirkstoff vollständig gelöst war. Der Kolben wurde auf Raumtemperatur abgekühlt und bis zur Markierung mit bidestilliertem Wasser aufgefüllt. Abschließend wurde zur Gewährleistung der Homogenität für eine weitere Minute geschüttelt. Die Lösung wurde in durchsichtige Glasampullen von 1 ml Volumen abgefüllt. Diese wurden luftdicht verschlossen und zum Lichtschutz mit Aluminiumfolie umwickelt. Die Ampullen wurden jeweils bei 6 bis 8°C, 25°C und 40°C aufbewahrt.

[6] = oral, daily; 17th Report of the Joint FAO/WHO Expert Committee on Food Additives, 1974; cited from earlier work

Compound `CCN(CC)C(=O)N[C@H]1C=C2c3cccc4[nH]cc(c34)C[C@H]2N(C)C1` [Lisurid] has a solubility ([1]; estimated, calculated from solubility data of the drugs/drug salts (Zimmermann 1983)) of roughly 22 µg/mL.
For `CCN(CC)C(=O)N[C@H]1C=C2c3cccc4[nH]cc(c34)C[C@H]2N(C)C1` [Lisuridhydrogenmaleat], the Färbung ([2]; 40°C, after 30 Tagen) was “signifikante gelbe Färbung”, the Färbung ([2]; 40°C, after weiteren 60 Tagen (following the first 30)) was “Braun” and the “Mittlere Fläche (Lisuridpeakfläche zur totalen Peakfläche des Chromatogramms)” value (shortened to “Mittlere Fläche”) ([2]; Erhöhte Temperatur (40°C), pH 3.5, 2 mg/3 mL) was 99,87 Prozent. The “Mittlere Fläche” value ([2]; Erhöhte Temperatur (40°C), pH 4.5, 2 mg/3 mL) was 99,79 Prozent, the “Mittlere Fläche” value ([2]; Erhöhte Temperatur (40°C), pH 5.1, 2 mg/3 mL) was 100,00 Prozent and the “Mittlere Fläche” value ([2]; Kühlschrank (6-8°C), pH 3.5, 2 mg/3 mL) was 99,87 Prozent. For the same compound, the “Mittlere Fläche” value ([2]; Kühlschrank (6-8°C), pH 4.5, 2 mg/3 mL) was 99,79 Prozent, the “Mittlere Fläche” value ([2]; Kühlschrank (6-8°C), pH 5.1, 2 mg/3 mL) was 100,00 Prozent and the “Mittlere Fläche” value ([2]; Raumtemperatur (25°C), pH 3.5, 2 mg/3 mL) was 99,87 Prozent. The “Mittlere Fläche” value ([2]; Raumtemperatur (25°C), pH 4.5, 2 mg/3 mL) was 99,79 Prozent, the “Mittlere Fläche” value ([2]; Raumtemperatur (25°C), pH 5.1, 2 mg/3 mL) was 100,00 Prozent and the degraded at 4320 h ([2]; Wirkstoff zersetzt, 40°C) was no more than 30%. It also gave a degraded at 4320 h ([2]; Zersetzung, Kühlschrank (6-8°C)) of roughly 0.7%, a remaining at 720 h ([2]; pH 3.5, Mittlere Fläche (Lisuridpeakfläche zur totalen Peakfläche des Chromatogramms), Erhöhte Temperatur (40°C), pH 3.5, t 30 d, 2 mg/3 mL) of 90.4% and a remaining at 2160 h ([2]; pH 3.5, Mittlere Fläche (Lisuridpeakfläche zur totalen Peakfläche des Chromatogramms), Erhöhte Temperatur (40°C), pH 3.5, t 90 d, 2 mg/3 mL) of 73.4%. It also gave a remaining at 4320 h ([2]; pH 3.5, Mittlere Fläche (Lisuridpeakfläche zur totalen Peakfläche des Chromatogramms), Erhöhte Temperatur (40°C), pH 3.5, t 180 d, 2 mg/3 mL) of 69.9%, a remaining at 2160 h ([2]; pH 4.5, Mittlere Fläche (Lisuridpeakfläche zur totalen Peakfläche des Chromatogramms), Erhöhte Temperatur (40°C), pH 4.5, t 90 d, 2 mg/3 mL) of 90.4% and a remaining at 4320 h ([2]; pH 4.5, Mittlere Fläche (Lisuridpeakfläche zur totalen Peakfläche des Chromatogramms), Erhöhte Temperatur (40°C), pH 4.5, t 180 d, 2 mg/3 mL) of 87.7%. For the same compound, the remaining at 4320 h ([2]; pH 5.1, Mittlere Fläche (Lisuridpeakfläche zur totalen Peakfläche des Chromatogramms), Erhöhte Temperatur (40°C), pH 5.1, t 180 d, 2 mg/3 mL) was 88%, the degraded at 4320 h ([2]; pH 5.1, Zersetzung, Raumtemperatur (25°C), citrate buffer pH 5.1, 4.5, 3.5) was 5% and the “Löslichkeit des Wirkstoffs” value [3] was “verbesserten Löslichkeit”. For the same compound, the Wirkstoff zerfallen ([4]; 1% Cremophor ELP) was 14,3%, the Wirkstoff zerfallen ([4]; 10% Cremophor ELP) was 21.3% and the Wirkstoff zersetzt ([5]; 40°C, 180 Tage, 9% Propylenglykol (cosolvent)) was roughly 10%. The “Mittlere Fläche” value ([5]; Erhöhte Temperatur (40°C), t 0 d) was 99.80 Prozent, the “Mittlere Fläche” value ([5]; Erhöhte Temperatur (40°C), t 7 d) was 99.33 Prozent and the “Mittlere Fläche” value ([5]; Erhöhte Temperatur (40°C), t 30 d) was 97.59 Prozent. For the same compound, the “Mittlere Fläche” value ([5]; Erhöhte Temperatur (40°C), t 90 d) was 94.06 Prozent, the “Mittlere Fläche” value ([5]; Erhöhte Temperatur (40°C), t 180 d) was 89.76 Prozent and the Wirkstoff zerfallen ([5]; Kühlschrank (6-8°C), 180 Tage, protected from light, 9% Propylenglykol (cosolvent)) was roughly 0.4%. The “Mittlere Fläche” value ([5]; Kühlschrank (6-8°C), t 0 d) was 99.80 Prozent, the “Mittlere Fläche” value ([5]; Kühlschrank (6-8°C), t 30 d) was 99.67 Prozent and the “Mittlere Fläche” value ([5]; Kühlschrank (6-8°C), t 90 d) was 99.52 Prozent. The “Mittlere Fläche” value ([5]; Raumtemperatur (25°C), t 0 d) was 99.80 Prozent, the “Mittlere Fläche” value ([5]; Raumtemperatur (25°C), t 30 d) was 99.46 Prozent and the “Mittlere Fläche” value ([5]; Raumtemperatur (25°C), t 90 d) was 99.15 Prozent. The “Mittlere Fläche” value ([5]; Raumtemperatur (25°C), t 180 d) was 98.35 Prozent.
For `CC(O)CO` (stereo not drawn) [Propylenglykol, 1,2-Propandiol (Propylenglykol)], the “geschätzte Menge, welche als tägliche orale Dosis akzeptabel ist” value [6] is given as 25 mg/kg kg.
In the case of `CCCN1C[C@@H](NC(=O)N(CC)CC)C[C@@H]2c3cccc4[nH]cc(c34)C[C@H]21` [Protergurid], the “Löslichkeit in Wasser” value [1] was “vergleichbare Löslichkeit in Wasser wie Lisurid” and the solubility ([1]; phosphate-buffered solution, phosphatgepufferte Lösung (pH 7.4)) was 26 µg/mL (≈ 70.6 µM).
For `CCN(CC)C(=O)N[C@H]1C[C@@H]2c3cccc4[nH]cc(c34)C[C@H]2N(C)C1` [Tergurid], the “Löslichkeit in Wasser” value [1] was “vergleichbare Löslichkeit in Wasser wie Lisurid”.
